What was measured:
[1] = molecular target: Norepinephrine transporter (Rattus norvegicus, UniProt Q9WTR4); test: Binding affinity was evaluated by measuring inhibiting the binding of [3H]nisoxetine to Norepinephrine transporter in rat brain tissue; assay type: tissue-based
[2] = organism: Rattus norvegicus; test: Inhibition of [3H]dopamine reuptake in rat […]; assay type: functional
[3] = molecular target: Sodium-dependent serotonin transporter (Rattus norvegicus, UniProt P31652); test: Binding affinity was evaluated by measuring inhibiting the binding of [3H]citalopram to Serotonin transporter in rat brain tissue; assay type: tissue-based
[4] = molecular target: Monoamine transporters; serotonin & dopamine (Homo sapiens) (UniProt P31645+Q01959); test: Selectivity was measured as SERT/DAT; assay type: protein assay
[5] = molecular target: Sodium-dependent dopamine transporter (Rattus norvegicus, UniProt P23977); test: Binding affinity was evaluated by measuring the inhibition of [3H]WIN-35428 binding to Dopamine transporter in rat brain tissue; assay type: tissue-based
Sodium-dependent dopamine transporter, sequence (P23977 whole entry): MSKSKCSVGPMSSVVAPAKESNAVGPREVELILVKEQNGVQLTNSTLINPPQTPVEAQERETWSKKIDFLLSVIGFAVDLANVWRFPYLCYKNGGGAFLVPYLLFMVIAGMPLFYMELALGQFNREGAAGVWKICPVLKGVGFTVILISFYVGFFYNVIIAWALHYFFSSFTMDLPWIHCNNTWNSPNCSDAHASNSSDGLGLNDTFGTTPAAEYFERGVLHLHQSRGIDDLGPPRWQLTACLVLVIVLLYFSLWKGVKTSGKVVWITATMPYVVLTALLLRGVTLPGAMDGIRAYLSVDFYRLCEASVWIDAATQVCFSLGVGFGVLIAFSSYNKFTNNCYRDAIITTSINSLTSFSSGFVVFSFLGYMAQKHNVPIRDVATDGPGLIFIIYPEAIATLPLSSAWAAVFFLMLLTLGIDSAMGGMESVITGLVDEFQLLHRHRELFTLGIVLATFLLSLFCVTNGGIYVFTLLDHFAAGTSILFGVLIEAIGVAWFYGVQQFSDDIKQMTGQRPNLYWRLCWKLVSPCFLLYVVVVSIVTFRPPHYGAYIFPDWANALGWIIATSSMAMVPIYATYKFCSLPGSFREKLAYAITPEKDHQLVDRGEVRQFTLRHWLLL

Sodium-dependent serotonin transporter, sequence (P31652 whole entry): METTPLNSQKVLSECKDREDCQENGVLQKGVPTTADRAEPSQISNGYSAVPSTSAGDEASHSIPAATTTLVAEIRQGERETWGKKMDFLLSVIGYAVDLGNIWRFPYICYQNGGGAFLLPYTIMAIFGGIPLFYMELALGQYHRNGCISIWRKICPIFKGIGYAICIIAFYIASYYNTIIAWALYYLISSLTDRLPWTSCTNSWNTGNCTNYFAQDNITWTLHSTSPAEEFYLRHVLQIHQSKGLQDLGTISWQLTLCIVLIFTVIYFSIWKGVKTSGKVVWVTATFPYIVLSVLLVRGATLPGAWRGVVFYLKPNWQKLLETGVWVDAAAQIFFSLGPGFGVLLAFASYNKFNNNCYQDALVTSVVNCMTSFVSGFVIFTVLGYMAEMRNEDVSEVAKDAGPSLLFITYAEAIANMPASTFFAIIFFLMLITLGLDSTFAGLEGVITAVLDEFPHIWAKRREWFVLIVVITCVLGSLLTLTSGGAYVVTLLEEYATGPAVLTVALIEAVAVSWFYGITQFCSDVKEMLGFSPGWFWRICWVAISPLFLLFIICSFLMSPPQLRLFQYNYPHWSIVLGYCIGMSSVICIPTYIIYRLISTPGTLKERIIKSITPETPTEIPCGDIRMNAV
Norepinephrine transporter, sequence (Q9WTR4 whole entry): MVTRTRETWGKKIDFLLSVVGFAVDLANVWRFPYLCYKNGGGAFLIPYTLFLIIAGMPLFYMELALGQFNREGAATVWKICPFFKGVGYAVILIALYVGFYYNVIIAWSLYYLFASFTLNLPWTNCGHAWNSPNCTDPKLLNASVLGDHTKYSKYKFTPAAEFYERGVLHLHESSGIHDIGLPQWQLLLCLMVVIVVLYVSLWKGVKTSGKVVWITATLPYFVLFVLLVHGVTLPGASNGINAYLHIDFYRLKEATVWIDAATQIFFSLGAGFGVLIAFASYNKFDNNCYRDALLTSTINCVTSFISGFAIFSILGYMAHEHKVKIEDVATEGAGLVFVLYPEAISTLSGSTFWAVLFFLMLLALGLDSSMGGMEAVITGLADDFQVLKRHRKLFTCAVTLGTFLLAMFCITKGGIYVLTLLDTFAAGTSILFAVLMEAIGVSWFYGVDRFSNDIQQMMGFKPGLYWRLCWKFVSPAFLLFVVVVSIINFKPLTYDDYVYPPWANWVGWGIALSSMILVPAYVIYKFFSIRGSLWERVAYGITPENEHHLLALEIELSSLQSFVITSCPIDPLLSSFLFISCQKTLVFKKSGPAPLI
Monoamine transporters; serotonin & dopamine (Homo sapiens), sequence (P31645 whole entry, looked up): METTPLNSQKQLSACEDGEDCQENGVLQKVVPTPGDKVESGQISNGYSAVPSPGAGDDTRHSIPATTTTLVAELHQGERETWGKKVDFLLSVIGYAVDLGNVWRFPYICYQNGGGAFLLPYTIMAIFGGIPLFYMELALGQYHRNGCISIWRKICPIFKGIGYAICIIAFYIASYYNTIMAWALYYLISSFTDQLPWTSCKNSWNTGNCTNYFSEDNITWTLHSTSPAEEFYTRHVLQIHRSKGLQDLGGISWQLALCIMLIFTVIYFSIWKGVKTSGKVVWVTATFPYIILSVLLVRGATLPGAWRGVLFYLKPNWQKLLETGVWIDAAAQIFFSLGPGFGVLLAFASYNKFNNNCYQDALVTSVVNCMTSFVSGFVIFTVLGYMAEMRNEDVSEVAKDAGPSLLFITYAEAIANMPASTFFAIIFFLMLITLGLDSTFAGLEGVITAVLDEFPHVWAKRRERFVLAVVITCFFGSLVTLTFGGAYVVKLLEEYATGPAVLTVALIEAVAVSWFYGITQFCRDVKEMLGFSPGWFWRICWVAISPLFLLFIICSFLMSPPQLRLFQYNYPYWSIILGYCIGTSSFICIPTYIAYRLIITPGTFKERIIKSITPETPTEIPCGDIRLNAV
Monoamine transporters; serotonin & dopamine (Homo sapiens), sequence (Q01959 whole entry, looked up): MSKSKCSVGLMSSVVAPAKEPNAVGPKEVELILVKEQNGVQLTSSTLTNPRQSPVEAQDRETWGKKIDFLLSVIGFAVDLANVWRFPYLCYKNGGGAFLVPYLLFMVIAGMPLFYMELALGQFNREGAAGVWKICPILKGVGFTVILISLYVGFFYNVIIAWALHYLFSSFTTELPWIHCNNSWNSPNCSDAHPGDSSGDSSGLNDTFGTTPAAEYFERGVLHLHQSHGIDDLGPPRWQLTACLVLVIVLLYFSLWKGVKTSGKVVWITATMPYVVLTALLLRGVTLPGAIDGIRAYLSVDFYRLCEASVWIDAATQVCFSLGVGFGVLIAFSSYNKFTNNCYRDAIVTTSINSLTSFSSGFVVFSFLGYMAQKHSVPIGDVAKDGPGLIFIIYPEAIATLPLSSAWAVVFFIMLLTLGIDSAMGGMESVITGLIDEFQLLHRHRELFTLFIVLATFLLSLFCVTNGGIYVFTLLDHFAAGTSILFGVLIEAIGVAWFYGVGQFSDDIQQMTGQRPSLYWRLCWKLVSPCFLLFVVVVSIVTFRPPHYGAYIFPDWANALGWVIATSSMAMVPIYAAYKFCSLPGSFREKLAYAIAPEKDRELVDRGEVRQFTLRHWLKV

Structure (SMILES)	IC50 [1] [µM]	IC50 [2] [µM]	IC50 [3] [µM]	Selectivity [4]	IC50 ([2]; Rattus norvegicus) [µM]	IC50 [5] [µM]
Fc1ccc(CNC2CCC(C(c3ccccc3)c3ccccc3)NC2)cc1 (cis isomer) [listing 1 of 2 here]	1.35	0.0289	2.81			
Fc1ccc(CNC2CCC(C(c3ccccc3)c3ccccc3)NC2)cc1 (cis isomer) [listing 2 of 2 here]				93.7		
COC(=O)[C@@H]1C2CC[C@@H](C[C@@H]1OC(=O)c1ccccc1)N2C (single isomer, unassigned) [COCAINE]					0.191	
Fc1ccc(CNC2CCC(C(c3ccccc3)c3ccccc3)NC2)cc1 (stereo in doubt) [listing 1 of 2 here]	4.47	0.106	1.33			0.0212
Fc1ccc(CN2CCC(CNCC(c3ccccc3)c3ccccc3)CC2)cc1				6.9		
Fc1ccc(CNC2CCC(C(c3ccccc3)c3ccccc3)NC2)cc1 (stereo in doubt) [listing 2 of 2 here]				6.28		
O=C(NC1CCC(C(c2ccccc2)c2ccccc2)NC1)c1ccc(F)cc1 (racemic)	5.61		6.21	71.4		0.087

Reference: ChEMBL document CHEMBL1134698 (Bioorg Med Chem Lett, 2001)
